Publication PMC6225228, “Design, Synthesis and Evaluation of N-pyrazinylbenzamides as Potential Antimycobacterial Agents” (Molecules : A Journal of Synthetic Chemistry and Natural …, 2018)
In brackets after ≈: the same amount, converted by molar mass. Read-outs that look alike come from different tables or passages of the source.

What was measured:
[1] = system: Mycobacterium tuberculosis H37Rv CNCTC My 331/88 (ATCC 27294); test: Antimycobacterial microdilution MABA, M. tuberculosis; format: cell-based; details: for MIC: Mycobacterium tuberculosis, read-out: Mtb H37Rv ATCC 27294 MIC, Middlebrook 7H9 with OADC growth supplement, pH = 6.6, MABA
[2] = system: M. kansasii CNCTC My 235/80 (ATCC 12478); test: Antimycobacterial microdilution MABA, M. kansasii; format: cell-based, Mycobacterium kansasii; details: for MIC: Mycobacterium kansasii, ATCC12478, pH 6.6, read-out: M. kans. ATCC 12478 MIC, Middlebrook 7H9 with OADC, pH 6.6, MABA
[3] = system: M. avium ssp. avium CNCTC My 80/72 (ATCC 15769); test: Antimycobacterial microdilution MABA, M. avium; format: cell-based, Mycobacterium avium; details: for MIC: Mycobacterium avium, ATCC15769, pH 6.6, read-out: M. avium ATCC 15769 MIC
[4] = system: Mycobacterium smegmatis CCM 4622 (ATCC 607); test: Antimycobacterial microdilution, M. smegmatis; format: cell-based; details: Mycolicibacterium smegmatis, read-out: M. smeg. ATCC 607 MIC
[5] = system: Staphylococcus aureus CCM 4516/08; test: Antibacterial microdilution broth, SA; format: cell-based; details: Staphylococcus aureus
[6] = system: Staphylococcus aureus H 5996/08 methicillin resistant; test: microbe, parasite or virus in culture; format: cell-based; details: Staphylococcus aureus, MRSA, read-out: MIC MRSA
[7] = system: Staphylococcus epidermidis H 6966/08; test: Antibacterial microdilution broth, SE; format: cell-based; details: Staphylococcus epidermidis, read-out: MIC SE
[8] = system: Enterococcus sp. J 14365/08; test: Antibacterial microdilution broth, EF; format: cell-based; details: Enterococcus, read-out: MIC EF
[9] = system: Escherichia coli CCM 4517; test: Antibacterial microdilution broth, EC; format: cell-based; details: Escherichia coli, read-out: MIC EC
[10] = system: Pseudomonas aeruginosa CCM 1961; test: Antibacterial microdilution broth, PA; format: cell-based; details: Pseudomonas aeruginosa, read-out: MIC PA
[11] = system: Candida albicans ATCC 44859; test: Antifungal microdilution broth, CA; format: cell-based; details: Candida albicans, read-out: MIC CA
[12] = system: Candida tropicalis 156; test: Antifungal microdilution broth, CT; format: cell-based; details: read-out: MIC CT
[13] = system: Candida krusei E28; test: Antifungal microdilution broth, CK; format: cell-based; details: Pichia kudriavzevii, read-out: MIC CK
[14] = system: Candida glabrata 20/I; test: Antifungal microdilution broth, CG; format: cell-based; details: Nakaseomyces glabratus, 20/I, read-out: MIC CG
[15] = system: Trichosporon asahii 1188; test: Antifungal microdilution broth, TA; format: cell-based; details: read-out: MIC TA
[16] = system: Aspergillus fumigatus 231; test: Antifungal microdilution broth, AF; format: cell-based; details: read-out: MIC AF
[17] = system: Lichtheimia corymbifera 272; test: Antifungal microdilution broth, LC; format: cell-based; details: read-out: MIC LC
[18] = system: Trichophyton interdigitale 445; test: Antifungal microdilution broth, TI; format: cell-based; details: read-out: MIC TI
[19] = CCM4516, 24 h, read-out: MIC SA, 24 h
[20] = CCM4516, 48 h, read-out: MIC SA, 48 h
[21] = Trichosporon asahii, 1188, 24 h
[22] = Trichosporon asahii, 1188, 48 h
[23] = Aspergillus fumigatus, 231, 24 h
[24] = Aspergillus fumigatus, 231, 48 h
[25] = Lichtheimia corymbifera, 272, 24 h
[26] = Lichtheimia corymbifera, 272, 48 h
[27] = Trichophyton interdigitale, 445, 72 h
[28] = Trichophyton interdigitale, 445, 120 h
[29] = Middlebrook 7H9 with OADC, pH 6.6, MABA

Row | Compound | MIC [1] [µg/mL] | MIC [2] [µg/mL] | MIC [3] [µg/mL] | MIC [4] [µg/mL] | MIC [5, 19] [µM] | MIC [5, 20] [µM] | MIC ([6]; 24 h) [µM] | MIC ([6]; 48 h) [µM] | MIC ([7]; H6966/08, 24 h) [µM] | MIC ([7]; H6966/08, 48 h) [µM] | MIC ([8]; SP.J14365/08, 24 h) [µM] | MIC ([8]; SP.J14365/08, 48 h) [µM] | MIC ([9]; CCM4517, 24 h) [µM] | MIC ([9]; CCM4517, 48 h) [µM] | MIC ([10]; CCM1961, 72 h) [µM] | MIC ([10]; CCM1961, 120 h) [µM] | MIC ([11]; ATCC44859, 24 h) [µM] | MIC ([11]; ATCC44859, 48 h) [µM] | MIC ([12]; Candida tropicalis, 156, 24 h) [µM] | MIC ([12]; Candida tropicalis, 156, 48 h) [µM] | further results
1 | O=C(Nc1cnc(Cl)cn1)c1ccccc1 [Compound 2a] | > 100 | > 100 | > 100 | ≥ 500 | 250 (≈ 58.4 µg/mL) | 250 (≈ 58.4 µg/mL) | 250 (≈ 58.4 µg/mL) | 250 (≈ 58.4 µg/mL) | 500 (≈ 117 µg/mL) | 500 (≈ 117 µg/mL) | > 500 | > 500 | > 500 | > 500 | > 500 | > 500 | > 500 | > 500 | > 500 | > 500 | Mtb H37Rv ATCC 27294 MIC ([1]; Middlebrook 7H9 with OADC growth supplement, pH = 6.6, MABA): >100 µg/mL; MIC ([13]; E28, 24 h): > 500 µM; MIC ([13]; E28, 48 h): > 500 µM; MIC ([14]; 24 h): > 500 µM; MIC ([14]; 48 h): > 500 µM; MIC [15, 21]: > 500 µM; MIC [15, 22]: > 500 µM; MIC [16, 23]: > 500 µM; MIC [16, 24]: > 500 µM; MIC [17, 25]: > 500 µM; MIC [17, 26]: > 500 µM; MIC [18, 27]: > 500 µM; MIC [18, 28]: > 500 µM; melting point: 162.5 to 163.5 °C
2 | COc1ccc(C(=O)Nc2cnccn2)cc1 [Compound 1g] | 25 (≈ 109 µM) | > 100 | > 100 | ≥ 500 | > 500 | > 500 | > 500 | > 500 | > 500 | > 500 | > 500 | > 500 | > 500 | > 500 | > 500 | > 500 | > 500 | > 500 | > 500 | > 500 | M. kans. ATCC 12478 MIC [2, 29]: >100 µg/mL; M. avium ATCC 15769 MIC [3, 29]: >100 µg/mL; MIC ([13]; E28, 24 h): > 500 µM; MIC ([13]; E28, 48 h): > 500 µM; MIC ([14]; 24 h): > 500 µM; MIC ([14]; 48 h): > 500 µM; MIC [15, 21]: > 500 µM; MIC [15, 22]: > 500 µM; MIC [16, 23]: > 500 µM; MIC [16, 24]: > 500 µM; MIC [17, 25]: > 500 µM; MIC [17, 26]: > 500 µM; MIC [18, 27]: > 500 µM; MIC [18, 28]: > 500 µM; melting point: 156 to 156.6 °C
3 | CC(=O)Oc1ccc(C(=O)Nc2cnccn2)cc1 [Compound 1d-Ac] | > 100 | > 100 | > 100 | ≥ 500 | > 500 | > 500 | > 500 | > 500 | > 500 | > 500 | > 500 | > 500 | > 500 | > 500 | > 500 | > 500 | > 500 | > 500 | > 500 | > 500 | MIC ([13]; E28, 24 h): > 500 µM; MIC ([13]; E28, 48 h): > 500 µM; MIC ([14]; 24 h): > 500 µM; MIC ([14]; 48 h): > 500 µM; MIC [15, 21]: > 500 µM; MIC [15, 22]: > 500 µM; MIC [16, 23]: > 500 µM; MIC [16, 24]: > 500 µM; MIC [17, 25]: > 500 µM; MIC [17, 26]: > 500 µM; MIC [18, 27]: > 500 µM; MIC [18, 28]: > 500 µM; melting point: 147.4 to 149.4 °C
4 | O=C(Nc1cnc(Cl)cn1)c1ccc(Cl)cc1 [Compound 2l] | > 100 | > 100 | > 100 | ≥ 500 | > 125 | > 125 | > 125 | > 125 | > 125 | > 125 | > 125 | > 125 | > 125 | > 125 | > 125 | > 125 | > 125 | > 125 | > 125 | > 125 | MIC ([5]; CCM4516, read-out: MIC against S. aureus, time not stated): > 125 µM; MIC ([13]; E28, 24 h): > 125 µM; MIC ([13]; E28, 48 h): > 125 µM; MIC ([14]; 24 h): > 125 µM; MIC ([14]; 48 h): > 125 µM; MIC [15, 21]: > 125 µM; MIC [15, 22]: > 125 µM; MIC [16, 23]: > 125 µM; MIC [16, 24]: > 125 µM; MIC [17, 25]: > 125 µM; MIC [17, 26]: > 125 µM; MIC [18, 27]: > 125 µM; MIC [18, 28]: > 125 µM; melting point: 225 to 226.3 °C
5 | O=C(Nc1cnccn1)c1ccccc1O [Compound 1b] | > 100 | > 100 | > 100 | ≥ 500 | > 500 | > 500 | > 500 | > 500 | > 500 | > 500 | > 500 | > 500 | > 500 | > 500 | > 500 | > 500 | > 500 | > 500 | > 500 | > 500 | MIC ([13]; E28, 24 h): > 500 µM; MIC ([13]; E28, 48 h): > 500 µM; MIC ([14]; 24 h): > 500 µM; MIC ([14]; 48 h): > 500 µM; MIC [15, 21]: > 500 µM; MIC [15, 22]: > 500 µM; MIC [16, 23]: > 500 µM; MIC [16, 24]: > 500 µM; MIC [17, 25]: > 500 µM; MIC [17, 26]: > 500 µM; MIC [18, 27]: 500 µM (≈ 108 µg/mL); MIC [18, 28]: 500 µM (≈ 108 µg/mL); melting point: 209.9 to 211.5 °C
